Assay results as given in patent publication US20240352145A1, “EFFICACY OF ANTI-TROP-2-SN-38 ANTIBODY DRUG CONJUGATES FOR THERAPY OF TUMORS RELAPSED/REFRACTORY TO CHECKPOINT INHIBITORS” (Immunomedics, Inc., priority 2016, published 2024).
pIC50: −log10 of the molar value. Read-outs that look alike come from different tables or passages of the source.

Experiments:
TNBC = format: in vivo, human
Protocol: Medical History—The patient is a person who was first diagnosed in October 2007 with a 1.8 cm mass in their right breast. They underwent a right mastectomy with a sentinel node biopsy (no malignancy in nodes). The tumor was determined to be negative for ER, PR and Her-2 (i.e., TNBC). They proceeded with 4 cycles of AC (doxorubicin and cyclophosphamide) therapy, followed by weekly low dose paclitaxel (×12). […] They had local surgery to remove the node and then received XRT (radiation therapy) through March 2009. In June 2010 CT documented recurrent pulmonary and bone involvement. The patient enrolled in a clinical trial using AVASTIN® (bevacizumab), METMAB® (onartuzumab, […]), and TAXOL® (paclitaxel), which they were maintained on until March 2013, having a complete response, but eventual progression of peripheral lung nodule and node in AP (aortopulmonary) window. In September 2014, they started on PD-L1 antibody (MPDL3280A) for 6 cycles, but progressed in January 2015.
2015 at a dose of 10 mg/kg, and has continued to receive this dose without reduction or delay in planned schedule now for 40+ doses.

[1] = SN-38 release at lysosomal pH; format: physicochemical; conditions: pH 5.3 at 37° C.
[2] = system: human gastric carcinoma xenografts (NCI-N87); assay: NCI-N87 xenograft, comparison of anti-Trop-2 ADCs; format: in vivo, mouse
Protocol: NCI-N87 cells were expanded in tissue culture and harvested with trypsin/EDTA. Female athymic nude mice were injected s.c. with 200 μL of NCI-N87 cell suspension mixed 1:1 with matrigel such that 1×10^7 cells was administered to each mouse. Once tumors reached approximately 0.25 cm^3 in size (6 days later), the animals were divided up into seven different treatment groups of nine mice each. For the SN-38 ADCs, mice received 500 μg i.v. injections once a week for two weeks. Control mice received the non-tumor targeting hA20-SN-38 ADC at the same dose/schedule. A final group of mice received only saline and served as the untreated control. Tumors were measured and mice weighed twice a week. Mice were euthanized for disease progression if their tumor volumes exceeded 1.0 cm^3 in size.

small-cell lung cancer = format: in vivo, human
Description: This is a person with a diagnosis of small-cell lung cancer, involving their left lung, mediastinal lymph nodes, and MRI evidence of a metastasis to the left parietal brain lobe. Prior chemotherapy includes carboplatin, etoposide, and topotecan, but with no response noted. Radiation therapy also fails to control their disease.

PARP = assay: Immunoblotting, apoptosis signaling, NCI-N87 and BxPC-3; format: cell-based, human; conditions: evident at 24 h, increased at 48 h
Protocol: Immunoblotting—Cells (2×10^6) were plated in 6-well plates overnight. […] Parental hRS7 was used as a control for the ADC. Cells were lysed in buffer containing 10 mM Tris, pH 7.4, 150 mM NaCl, protease inhibitors and phosphatase inhibitors (2 mM […], 10 mM NaF). A total of 20 μg protein was resolved in a 4-20% SDS polyacrylamide gel, transferred onto a nitrocellulose membrane and blocked by 5% non-fat milk in 1×TBS-T (Tris-buffered saline, 0.1% Tween-20) for 1 h at room temperature. Membranes were probed overnight at 4° C. with primary antibodies followed by 1-h incubation with antirabbit secondary antibody (1:2500) at room temperature. Signal detection was done using a chemiluminescence kit (Supersignal West Dura, Thermo Scientific; Rockford, IL) with the membranes visualized on a Kodak Image Station […]. Primary antibodies p21Waf1/Cip1 (Cat. No. 2947), Caspase-3 (Cat. No. 9665), Caspase-7 (Cat. No. 9492), Caspase-9 (Cat. No. 9502), PARP (Cat. No. 9542), 3-actin (Cat. No. 4967), pJNK1/2 (Cat. No. 4668), JNK (Cat. No. 9258), and goat anti-rabbit-HRP secondary antibody (Cat. No. 7074) were obtained from Cell Signal Technology (Danvers, MA).

MDA-MB-231 = conditions: mouse, in vivo
BxPC-3 = assay: In vitro cytotoxicity, BxPC-3
Description: Cell lines, antibodies, and chemotherapeutics—All human cancer cell lines used in this study were purchased from the American Type Culture Collection.

With IMMU-132 as the substance, how does the “Best Response, shrinkage” value (TNBC; 10 mg/kg) read?
Its value is 54%.

What about the “Best Response” value (TNBC; 10 mg/kg, patient progressed after PD-L1 therapy) of the same substance?
The value was “Partial response, confirmed”.

And the “decrease in sum of target lesion diameters” value (from here on “decrease in sum”) (TNBC; CT 7 Apr. 2015, first assessment)?
Its value is 33%.

What about the “decrease in sum” value (TNBC; CT 13 Sep. 2015) of the same substance?
Its value is 52%.

And the “decrease in sum” value (TNBC; CT 15 November)?
The value was 54%.

And the “decrease in sum” value (TNBC; CT 18 May 2015)?
Its value is 48%.

What about the “decrease in sum” value (TNBC; CT 19 Jul. 2015) of the same substance?
Its value is 50%.

What about the “decrease in sum” value (TNBC; CT 25 Feb. 2016) of the same substance?
The value was 46%.

What about the “time to progression” value (TNBC; not reached) of the same substance?
The value was at least 12.4 months.

And the “time for release of 50% of the SN-38” value [1]?
Its value is about 13 h.

And the “tumor growth (AUC) vs saline and hA20-SN-38” value ([2]; 500 μg i.v. once a week for two weeks)?
The value was “significantly inhibited tumor growth”.

And the “mean time to tumor progression (TTP)” value ([2]; mouse, in vivo)?
Its value is 18.4 ± 3.3 days.

What about the “mice with stable disease” value ([2]; nine mice per group) of the same substance?
The value was 7 of 9.

And the “shrinkage of target left lung mass” value (small-cell lung cancer; 18 mg/kg once every three weeks, after fifth infusion)?
Its value is 13%.

What about the “reduction of brain metastasis” value (small-cell lung cancer; after another 3 months) of the same substance?
The value was 21%.

What about the “reduction of left lung mass” value (small-cell lung cancer; after another 3 months) of the same substance?
Its value is 25%.

What about the “reduction of brain metastasis” value (small-cell lung cancer; after fifth infusion) of the same substance?
Its value is 10%.

And the “adverse events after second dose” value (small-cell lung cancer; in vivo)?
Its value is “hypotension and a Grade 2 neutropenia”.

And the PARP cleavage (PARP)?
The PARP cleavage was “mediated PARP cleavage”.

And the specific therapeutic effects (MDA-MB-231)?
The specific therapeutic effects was “specific therapeutic effects with IMMU-132 were not achieved”.

And the pIC50 (BxPC-3)?
The pIC50 was 8.39.
